We go through 26 molecules from patent publication US20080045506A1 (GLAXO GROUP LIMITED, priority 2004, published 2008).

Counter-ions that a name gives are not always drawn.

The target of this test is T1, histamine H3 receptor (Homo sapiens, UniProt Q9Y5N1).
T1 construct: expressed in transfected cells; host or cells: CHO K1 cells (pSwitch/pGene GeneSwitch system, mifepristone-induced), clone 3H3; membranes
T1 sequence (Q9Y5N1 whole entry): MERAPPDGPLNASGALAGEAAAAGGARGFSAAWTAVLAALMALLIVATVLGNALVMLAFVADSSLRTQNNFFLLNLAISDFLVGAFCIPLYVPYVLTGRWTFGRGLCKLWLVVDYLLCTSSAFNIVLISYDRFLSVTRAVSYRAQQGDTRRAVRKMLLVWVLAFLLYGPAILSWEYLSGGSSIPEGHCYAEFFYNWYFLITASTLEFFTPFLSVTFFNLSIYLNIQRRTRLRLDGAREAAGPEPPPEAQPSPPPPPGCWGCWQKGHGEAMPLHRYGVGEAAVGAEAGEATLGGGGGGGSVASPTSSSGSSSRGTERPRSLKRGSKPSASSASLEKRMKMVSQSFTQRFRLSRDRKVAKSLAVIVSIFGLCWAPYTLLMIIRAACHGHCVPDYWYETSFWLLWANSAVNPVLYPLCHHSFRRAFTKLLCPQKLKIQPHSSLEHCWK
Description: Histamine H3 functional antagonist assay (method B). Format: biochemical. To be noted: [35S]-GTPγS SPA, membrane prepared from cultured H3 cells, histamine at EC80, averages of a number of experiments, read-out: functional pKi (fpKi), antagonism (converted). An excerpt: A membrane preparation containing histamine H3 receptors may be prepared in accordance with the following procedures:
(i) Generation of Histamine H3 Cell Line
DNA encoding the human histamine H3 gene (Huvar, A. et al. (1999) Mol. Pharmacol. 55(6), 1101-1107) was cloned into a holding vector, pcDNA3.1 TOPO (InVitrogen) and its cDNA was isolated from this vector by restriction digestion of plasmid DNA with the enzymes BamH1 and Not-1 and ligated into the inducible expression vector pGene (InVitrogen) digested with the same enzymes. The GeneSwitch™ system (a system where in transgene expression is switched off in the absence of an inducer and switched on in the presence of an inducer) was performed as described in U.S. Pat. Nos. 5,364,791; 5,874,534; and 5,935,934. Ligated DNA was transformed into competent DH5α E. coli host bacterial cells and plated onto Luria Broth (LB) agar containing Zeocin™ (an antibiotic which allows the selection of cells expressing the sh ble gene which is present on pGene and pSwitch) at 50 μg ml^−1. Colonies containing the re-ligated plasmid were identified by restriction analysis. DNA for transfection into mammalian cells was prepared from 250 ml cultures of the host bacterium containing the pGeneH3 plasmid and isolated using a DNA preparation kit (Qiagen Midi-Prep) as per manufacturers guidelines (Qiagen).
CHO K1 cells previously transfected with the pSwitch regulatory plasmid (InVitrogen) were seeded at 2×10e6 cells per T75 flask in Complete Medium, containing Hams F12 (GIBCOBRL, Life Technologies) medium supplemented with 10% v/v dialysed foetal bovine serum, L-glutamine, and hygromycin (100 μg ml^−1), 24 hours prior to use. Plasmid DNA was transfected into the cells using Lipofectamine plus according to the manufacturers guidelines (InVitrogen). 48 hours post transfection cells were placed into complete medium supplemented with 500 μg ml^−1 Zeocin™.
10-14 days post selection 10 nM Mifepristone (InVitrogen), was added to the culture medium to induce the expression of the receptor. 18 hours post induction cells were detached from the flask using ethylenediamine tetra-acetic acid (EDTA; 1:5000; InVitrogen), following several washes with phosphate buffered saline pH 7.4 and resuspended in Sorting Medium containing Minimum Essential Medium (MEM), without phenol red, and supplemented with Earles salts and 3% Foetal Clone II (Hyclone). Approximately 1×10e7 cells were examined for receptor expression by staining with a rabbit polyclonal antibody, 4a, raised against the N-terminal domain of the histamine H3 receptor, incubated on ice for 60 minutes, followed by two washes in sorting medium. Receptor bound antibody was detected by incubation of the cells for 60 minutes on ice with a goat anti rabbit antibody, conjugated with Alexa 488 fluorescence marker (Molecular Probes). Following two further washes with Sorting Medium, cells were filtered through a 50 μm Filcon™ (BD Biosciences) and then analysed on a FACS Vantage SE Flow Cytometer fitted with an Automatic Cell Deposition Unit. Control cells were non-induced cells treated in a similar manner. Positively stained cells were sorted as single cells into 96-well plates, containing Complete Medium containing 500 μg ml^−1 Zeocin™ and allowed to expand before reanalysis for receptor expression via antibody and ligand binding studies. One clone, 3H3, was selected for membrane preparation.
(ii) Membrane Preparation from Cultured Cells
All steps of the protocol are carried out at 4° C. and with pre-cooled reagents. The cell pellet is resuspended in 10 volumes of homogenisation buffer (50 mM N-2-hydroxyethylpiperazine-N′-2-ethanesulfonic acid (HEPES), 1 mM ethylenediamine tetra-acetic acid (EDTA), pH 7.4 with KOH, supplemented with 10e-6M leupeptin (acetyl-leucyl-leucyl-arginal; Sigma L2884), 25 μg/ml bacitracin (Sigma B0125), 1 mM phenylmethylsulfonyl fluoride (PMSF) and 2×10e-6M pepstain A (Sigma)). […]
In the case of `Cc1nnc(-c2ccc(N3CC[C@H](C(=O)N4CCN(C(C)C)CC4)C3)cc2)o1` [Example E30, 1-(1-Methylethyl)-4-({(3S)-1-[4-(5-methyl-1,3,4-oxadiazol-2-yl)phenyl]-3-pyrrolidinyl}carbonyl)piperazine], the Ki is no more than 0.316 nM.
The figure for `CC(=O)c1ccc(N2CC[C@H](C(=O)N3CCCN(C4CCC4)CC3)C2)cc1` (single isomer, unassigned) [Example E21B, hydrochloride] is no more than 0.316 nM; for `Cc1nnc(-c2ccc(N3CC[C@H](C(=O)N4CCCN(C(C)C)CC4)C3)cc2)o1` [Example E47, 1-(1-Methylethyl)-4-({(3S)-1-[4-(5-methyl-1,3,4-oxadiazol-2-yl)phenyl]-3-pyrrolidinyl}carbonyl)hexahydro-1H-1,4-diazepine hydrochloride] it is no more than 0.316 nM; for `CC(=O)c1ccc(N2CC[C@H](C(=O)N3CCCN(CC4CC4)CC3)C2)cc1` [Example E10, 1-[4-((3S)-3-{[4-(Cyclopropylmethyl)hexahydro-1H-1,4-diazepin-1-yl]carbonyl}-1-pyrrolidinyl)phenyl]ethanone] it is no more than 0.316 nM.
Regarding `CCc1noc(-c2ccc(N3CC[C@H](C(=O)N4CCN(C(C)C)CC4)C3)cc2)n1` [Example E49, 1-({(3S)-1-[4-(3-Ethyl-1,2,4-oxadiazol-5-yl)phenyl]-3-pyrrolidinyl}carbonyl)-4-(1-methylethyl)piperazine hydrochloride], the Ki is no more than 0.316 nM.
The figure for `Cc1ccc2cc(N3CC[C@H](C(=O)N4CCCN(C5CCC5)CC4)C3)ccc2n1` (single isomer, unassigned) [Example E19B, hydrochloride] is no more than 0.316 nM; for `CC(=O)c1ccc(N2CC[C@H](C(=O)N3CCN(C(C)C)CC3)C2)cc1` [Example E2, 1-[4-((3S)-3-{[4-(1-Methylethyl)-1-piperazinyl]carbonyl}-1-pyrrolidinyl)phenyl]ethanone] it is no more than 0.316 nM; for `Cc1nc(-c2ccc(N3CC[C@H](C(=O)N4CCN(C(C)C)CC4)C3)cc2)no1` [Example E33, 1-(1-Methylethyl)-4-({(3S)-1-[4-(5-methyl-1,2,4-oxadiazol-3-yl)phenyl]-3-pyrrolidinyl}carbonyl)piperazine] it is no more than 0.316 nM.
For the molecule `CC(=O)c1ccc(N2CC[C@H](C(=O)N3CCN(C(C)C)[C@@H](C)C3)C2)cc1` [Example E5, 1-[4-((3S)-3-{[(3S)-3-Methyl-4-(1-methylethyl)-1-piperazinyl]carbonyl}-1-pyrrolidinyl)phenyl]ethanone], the Ki was no more than 0.316 nM.
In the case of `Cc1noc(-c2ccc(N3CC[C@H](C(=O)N4CCCN(C(C)C)CC4)C3)cc2F)n1` [Example E29, 1-({(3S)-1-[3-Fluoro-4-(3-methyl-1,2,4-oxadiazol-5-yl)phenyl]-3-pyrrolidinyl}carbonyl)-4-(1-methylethyl)hexahydro-1H-1,4-diazepine hydrochloride], the Ki is no more than 0.316 nM.
On to `CC(C)N1CCN(C(=O)[C@H]2CCN(c3ccc(-c4ccno4)cc3)C2)CC1` [Example E41, 1-({(3S)-1-[4-(5-isoxazolyl)phenyl]-3-pyrrolidinyl}carbonyl)-4-(1-methylethyl)piperazine], for which the Ki was no more than 0.316 nM.
With `Cc1ccc2cc(N3CCC(C(=O)N4CCCN(C5CCC5)CC4)C3)ccc2n1` (racemic) [Example E19, (R,S)-6-{3-[(4-Cyclobutylhexahydro-1H-1,4-diazepin-1-yl)carbonyl]-1-pyrrolidinyl}-2-methylquinoline] the figure was less than 10 nM.
The figure for `CC(=O)c1ccc(N2CC[C@H](C(=O)N3CCCN(C(C)C)CC3)C2)cc1` [Example E27, 1-[4-((3S)-3-{[4-(1-Methylethyl)hexahydro-1H-1,4-diazepin-1-yl]carbonyl}-1-pyrrolidinyl)phenyl]ethanone] is no more than 0.316 nM; for `Cc1noc(-c2ccc(N3CC[C@H](C(=O)N4CCCN(C(C)C)CC4)C3)cc2)n1` [Example E28, 1-(1-Methylethyl)-4-({(3S)-1-[4-(3-methyl-1,2,4-oxadiazol-5-yl)phenyl]-3-pyrrolidinyl}carbonyl)hexahydro-1H-1,4-diazepine] it is no more than 0.316 nM; for `Cc1noc(-c2ccc(N3CC[C@@H](C(=O)N4CCCN(C5CCC5)CC4)C3)c(F)c2)n1` (single isomer, unassigned) [Example E20A, hydrochloride] it is less than 10 nM.
Regarding `Cc1cn(-c2ccc(N3CC[C@H](C(=O)N4CCN(C(C)C)CC4)C3)cc2)cn1` [Example E55, 1-(1-Methylethyl)-4-({(3S)-1-[4-(4-methyl-1H-imidazol-1-yl)phenyl]-3-pyrrolidinyl}carbonyl)piperazine dihydrochloride], the Ki is no more than 0.316 nM.
Regarding `Cc1noc(-c2ccc(N3CC[C@H](C(=O)N4CCN(C5CCC5)CC4)C3)cn2)n1` [Example E51, 1-Cyclobutyl-4-({(3S)-1-[6-(3-methyl-1,2,4-oxadiazol-5-yl)-3-pyridinyl]-3-pyrrolidinyl}carbonyl)piperazine hydrochloride], the Ki is no more than 0.316 nM.
Take `Cc1noc(-c2ccc(N3CC[C@H](C(=O)N4CCN(C(C)C)CC4)C3)cc2F)n1` [Example E24, 1-({(3S)-1-[3-Fluoro-4-(3-methyl-1,2,4-oxadiazol-5-yl)phenyl]-3-pyrrolidinyl}carbonyl)-4-(1-methylethyl)piperazine]: the Ki was no more than 0.316 nM.
Consider `Cc1noc(-c2ccc(N3CC[C@H](C(=O)N4CCN(C(C)C)[C@@H](C)C4)C3)cc2)n1` [Example E6, (2S)-2-Methyl-1-(1-methylethyl)-4-({(3S)-1-[4-(3-methyl-1,2,4-oxadiazol-5-yl)phenyl]-3-pyrrolidinyl}carbonyl)piperazine], for which the Ki is no more than 0.316 nM.
With `CCC(CC)N1CCN(C(=O)[C@H]2CCN(c3ccc(-c4nc(C)no4)cc3)C2)CC1` [Example E9, 1-(1-Ethylpropyl)-4-({(3S)-1-[4-(3-methyl-1,2,4-oxadiazol-5-yl)phenyl]-3-pyrrolidinyl}carbonyl)piperazine] the figure was no more than 0.316 nM; with `CC(C)N1CCN(C(=O)[C@H]2CCN(c3ccc(-c4nnc(-c5ccccc5)o4)cc3)C2)CC1` [Example E40, 1-(1-Methylethyl)-4-({(3S)-1-[4-(5-phenyl-1,3,4-oxadiazol-2-yl)phenyl]-3-pyrrolidinyl}carbonyl)piperazine], no more than 0.316 nM.
For the molecule `Cc1noc(-c2ccc(N3CCC(C(=O)N4CCCN(C5CCC5)CC4)C3)cc2)n1` (racemic) [Example E18, (R,S)-1-Cyclobutyl-4-({1-[4-(3-methyl-1,2,4-oxadiazol-5-yl)phenyl]-3-pyrrolidinyl}carbonyl)hexahydro-1H-1,4-diazepine], the Ki was no more than 0.316 nM.
As to `Cc1noc(-c2ccc(N3CC[C@H](C(=O)N4CCCN(C5CCC5)CC4)C3)cc2)n1` (single isomer, unassigned) [Example E18B, hydrochloride], the Ki is no more than 0.316 nM.
With `Cc1noc(-c2ccc(N3CC[C@H](C(=O)N4CCCN(C5CCC5)CC4)C3)c(F)c2)n1` (single isomer, unassigned) [Example E20B, hydrochloride], the Ki was no more than 0.316 nM.
On to `Cc1noc(-c2ccc(N3CC[C@H](C(=O)N4CCCN(CC5CC5)CC4)C3)cn2)n1` [Example E58, hydrochloride], for which the Ki was no more than 0.316 nM.
For the molecule `Cc1nc(-c2ccc(N3CC[C@H](C(=O)N4CCN(C(C)C)CC4)C3)cc2)co1` [Example E32A, 1-(1-Methylethyl)-4-({(3S)-1-[4-(2-methyl-1,3-oxazol-4-yl)phenyl]-3-pyrrolidinyl}carbonyl)piperazine], the Ki was no more than 0.316 nM.
